Where two headings read alike, the source gives them in different places.
Legend:
[1] = test system: lettuce; conditions: double application, 3-chlorosalicylate 100 mg/L, benzothiadiazole salt 50 mg/L
Excerpt: The purpose of the study was to determine the effect of foliar spraying with test solutions on lettuce (Lactuca sativa L. ‘Zeralda’) plants. The plants were sprayed 7 and 14 days after transplanting to a permanent site. […] After another 7 days, drought stress was induced (plants in the selected combinations were not watered until symptoms of leaf wilting appeared), followed by proper watering of the plants again. Control plants were watered in turn to a constant weight. After 3 days after re-watering, chlorophyll fluorescence was measured (OJIP test, methodology described, among others, in Kalaji H. M., 2011. Impact of abiotic stress factors on chlorophyll fluorescence in plants of selected barley cultivars Hordeum vulgare L. SGGW Publishing House, Warsaw [https://badanieroslin.pl/wp-content/uploads/2018/11/Oddzialywanie-abiotycznych-czynnikow. . . ..pdf]) and the condition of the plants was assessed.
The measurement was carried out after inducing drought stress, followed by re-watering the plants to a constant weight. […] This parameter is lowered by stresses.

[2] = test system: tomato seedlings; experiment: Tomato seedlings in pots sprayed 3 times: height, fresh and dry weight, chlorophyll (Example 3); assay type: in vivo; conditions: 80 mg/L, benzothiadiazole salt 30 mg/L
Excerpt: Tomato seedlings (12 according to development scale BBCH) were planted into pots with peat substrate (P9 pots having 0.5 l). Plant pots were placed in greenhouse and cultivated for a 1 and a half month. Plants were sprayed with tested substance 3 times, in 10-day interval. […] 2-methoxyethyl(trimethyl)-ammonium benzo[1,2,3]thiadiazole-7-carboxylate; 3. […] 2-methoxyethyl(trimethyl)ammonium 3-chlorosalicylate; 7. 2-ethoxyethyl(trimethyl)ammonium 3-chlorosalicylate; 8. ethyl(trimethyl)ammonium 3-chlorosalicylate at a concentration od 80 mg/l. Plants were sprayed with tested substances three times at 10-day intervals. Plants in peat substrate treated with water only were the control. During the course of the experiment, the height of the plants was measured, and at the end the fresh and dry weight of the aboveground part was evaluated. Moreover chlorophyll content was measured. The experiment was conducted in 4 repetitions with 5 plants in each (a total of 20 plants per each variant of treatment).

[3] = test system: winter rapeseed; conditions: for more aboveground dry matter compared to control: last harvest date, fully ripe
Excerpt: The experiment was established using the long strip method in four repetitions. The dimensions of the plots at establishment were 96 m^2 gross, while the harvestable area was 23.25 m^2 net.
In the experiment, uniform NPK fertilization was applied, using both bulk and liquid fertilizers.
The following facilities were included in the experiment: • 1. control, no stimulant application, standard fungicide protection • 2. stimulant applied at stage 31-32 according to the BBCH development scale, standard fungicide protection • 3. stimulant applied at stage 53-55 according to the BBCH development scale, no fungicide protection

[4] = BBCH 32, standard fungicide protection, 80 mg/L, benzothiadiazole salt 25 mg/L
[5] = BBCH 32, stimulant only, 80 mg/L, benzothiadiazole salt 25 mg/L
[6] = BBCH 55, standard fungicide protection, 80 mg/L, benzothiadiazole salt 25 mg/L
[7] = BBCH 55, without fungicide, 80 mg/L, benzothiadiazole salt 25 mg/L
[8] = first sampling date, stimulant at BBCH 31-32, no fungicide yet, 80 mg/L, benzothiadiazole salt 25 mg/L
[9] = second date, regardless of cultivation technology, 80 mg/L, benzothiadiazole salt 25 mg/L

## C[N+](C)(C)CCO.O=C([O-])c1cccc(Cl)c1O [choline 3-chlorosalicylate]
[1]; Control (watered)
  ABS/RC: 1.48 b
  DIo/RC: 0.24 a
  ETo/RC: 1.08 b
  F0: 4877 a
  FM: 34278 a
  FM/F0: 7.32 c
  Fv: 29401 a
  Fv/F0: 6.32 c
  Fv/FM: 0.86 c
  Pi_Abs (PSII functioning index calculated on the basis of energy absorption): 12.74 days
  TRo/RC: 1.72 b
[1]; Drought
  ABS/RC: 1.20 a
  DIo/RC: 0.24 a
  ETo/RC: 0.81 a
  F0: 5524 a
  FM: 33908 a
  FM/F0: 6.16 ab
  Fv: 28384 b
  Fv/F0: 5.16 ab
  Fv/FM: 0.84 ab
  Pi_Abs (PSII functioning index calculated on the basis of energy absorption): 7.77 b
  TRo/RC: 1.44 a
[1]
  % dry matter (leaf), Average: 3.72 b %
  % dry matter (leaf), Drought: 3.55 b %
  % dry matter (leaf), Watered: 3.96 b %
  Head and root weight, Average: 72.5 a g/plant
  Head and root weight, Drought: 71.7 abc g/plant
  Head and root weight, Watered: 73.2 abc g/plant
  Head weight, Average: 51.3 a g/plant
  Head weight, Drought: 52.8 b g/plant
  Head weight, Watered: 50.6 ab g/plant
  RWC (relative water content), Watered: 73.2 ab %
  RWC, Average: 73.3 a %
  RWC, Drought: 71.9 ab %
[2]; chitosan lactate 50 mg/l
  Average plant height, before second treatment: 143.2 b mm
  Average plant height, before third treatment: 345.1 b mm
  Average plant height, initial height, before first treatment: 59.3 a mm
  Chlorophyll content (SPAD), a day after treatment #1: 74.6 b
  Chlorophyll content (SPAD), a day after treatment #2: 76.2 b
  Chlorophyll content (SPAD), a day after treatment #3: 79.3 b
  Plant height increase: 285.8 b mm
[2]; above-ground part
  Average dry mass: 83.1 b g
  Average fresh mass: 327.7 b g
[2]; before treatment #1, chitosan lactate 50 mg/l
  Chlorophyll content (SPAD), Treatment #1: 48.5 a
[2]; before treatment #2, chitosan lactate 50 mg/l
  Chlorophyll content (SPAD), Treatment #2: 48.3 a
[2]; before treatment #3, chitosan lactate 50 mg/l
  Chlorophyll content (SPAD), Treatment #3: 49.5 a
[3]; [4]
  increase in calcium uptake: 5%
  increase in magnesium uptake: 4%
  increase in nitrogen uptake: 6%
  increase in phosphorus uptake: 7%
  increase in potassium uptake: 6%
[3]; [5]
  increase in calcium uptake: 8%
  increase in magnesium uptake: 12%
  increase in nitrogen uptake: 9%
  increase in phosphorus uptake: 7%
  increase in potassium uptake: 8%
[3]; BBCH 32, with fungicide, 80 mg/L, benzothiadiazole salt 25 mg/L
  higher fat content: 6%
[3]; BBCH 32, without fungicide, 80 mg/L, benzothiadiazole salt 25 mg/L
  higher fat content: 8%
[3]; [6]
  increase in calcium uptake: 9%
  increase in fat content: 6%
  increase in magnesium uptake: 10%
  increase in nitrogen uptake: 11%
  increase in phosphorus uptake: 10%
  increase in potassium uptake: 8%
[3]; [7]
  increase in calcium uptake: 10%
  increase in fat content: 5%
  increase in magnesium uptake: 12%
  increase in nitrogen uptake: 11%
  increase in phosphorus uptake: 10%
  increase in potassium uptake: 7%
[3]; both fungicide and stimulant treatments, 80 mg/L, benzothiadiazole salt 25 mg/L
  seed yields higher compared to control: 20%
[3]; first measurement date
  chlorophyll content, differences between the tested objects: no differences were observed
[3]; [8]
  more biomass (dry weight) compared to control: 34%
  more biomass (fresh weight) compared to control: 36%
[3]; only the stimulant, 80 mg/L, benzothiadiazole salt 25 mg/L
  more aboveground dry matter compared to control: 42%
[3]; with fungicide protection, 80 mg/L, benzothiadiazole salt 25 mg/L
  more aboveground dry matter compared to control: 38%
[3]; [9]
  more dry weight compared to control, on average: 32%
  more fresh weight compared to control, on average: 28%
[3]; tested combinations, 80 mg/L, benzothiadiazole salt 25 mg/L
  weight of one thousand seeds higher compared to control: 10%
[3]; with a fungicide, printed 'first date' (of second and third measurement dates), 80 mg/L, benzothiadiazole salt 25 mg/L
  more chlorophyll in the leaves (SPAD) compared to control: 5%
[3]; with a fungicide, printed 'second date', 80 mg/L, benzothiadiazole salt 25 mg/L
  more chlorophyll in the leaves (SPAD) compared to control: 7%
[3]; without a fungicide, printed 'first date', 80 mg/L, benzothiadiazole salt 25 mg/L
  more chlorophyll in the leaves (SPAD) compared to control: 6%
[3]; without a fungicide, printed 'second date', 80 mg/L, benzothiadiazole salt 25 mg/L
  more chlorophyll in the leaves (SPAD) compared to control: 5%
[3]; without fungicide protection, stimulant at BBCH 31-32, 80 mg/L, benzothiadiazole salt 25 mg/L
  seed yields higher compared to control: 10%
